According to BindingDB's records for patent US20250034122 (Mission Therapeutics, 2025):

Target: T1, Ubiquitin carboxyl-terminal hydrolase 30 (Homo sapiens, UniProt Q70CQ3)
T1 sequence (Q70CQ3 whole entry): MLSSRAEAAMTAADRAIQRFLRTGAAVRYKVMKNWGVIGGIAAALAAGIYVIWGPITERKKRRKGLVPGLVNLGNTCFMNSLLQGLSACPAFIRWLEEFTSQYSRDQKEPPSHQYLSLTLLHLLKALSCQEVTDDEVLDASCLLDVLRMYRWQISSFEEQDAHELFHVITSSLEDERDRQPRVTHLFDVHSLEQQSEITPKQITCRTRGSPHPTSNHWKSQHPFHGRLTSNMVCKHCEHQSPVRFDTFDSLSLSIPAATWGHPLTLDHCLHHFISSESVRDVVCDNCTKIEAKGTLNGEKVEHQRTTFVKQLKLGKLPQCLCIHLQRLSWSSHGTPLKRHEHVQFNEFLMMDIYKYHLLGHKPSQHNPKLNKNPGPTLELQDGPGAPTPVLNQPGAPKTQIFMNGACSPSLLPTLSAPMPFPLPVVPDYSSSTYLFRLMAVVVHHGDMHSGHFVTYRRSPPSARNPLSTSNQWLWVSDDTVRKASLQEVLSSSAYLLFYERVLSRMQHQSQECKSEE
Assay: USP30 Biochemical IC50 Assay
Protocol: A typical 8-point dilution series would be 100, 30, 10, 3, 1, 0.3, 0.1, 0.03 μM final.

IC50: 11 nM
Compound: N#CN1C[C@H](NC(=O)C2NC(c3cccc(C(F)(F)F)c3)=CO2)C[C@H]1Cn1cccn1 (stereo partly specified) [US20250034122, Example 30]
